{
  "source": "paper PMC5823473",
  "about": "“Host-parasite co-metabolic activation of antitrypanosomal aminomethyl-benzoxaboroles” (PLoS Pathogens, 2018)",
  "key": {"[1]": {"target": "T1, MAOa (Homo sapiens, UniProt P21397)", "T1 construct": "commercial recombinant enzyme (Sigma)", "T1 sequence (P21397 1-527)": "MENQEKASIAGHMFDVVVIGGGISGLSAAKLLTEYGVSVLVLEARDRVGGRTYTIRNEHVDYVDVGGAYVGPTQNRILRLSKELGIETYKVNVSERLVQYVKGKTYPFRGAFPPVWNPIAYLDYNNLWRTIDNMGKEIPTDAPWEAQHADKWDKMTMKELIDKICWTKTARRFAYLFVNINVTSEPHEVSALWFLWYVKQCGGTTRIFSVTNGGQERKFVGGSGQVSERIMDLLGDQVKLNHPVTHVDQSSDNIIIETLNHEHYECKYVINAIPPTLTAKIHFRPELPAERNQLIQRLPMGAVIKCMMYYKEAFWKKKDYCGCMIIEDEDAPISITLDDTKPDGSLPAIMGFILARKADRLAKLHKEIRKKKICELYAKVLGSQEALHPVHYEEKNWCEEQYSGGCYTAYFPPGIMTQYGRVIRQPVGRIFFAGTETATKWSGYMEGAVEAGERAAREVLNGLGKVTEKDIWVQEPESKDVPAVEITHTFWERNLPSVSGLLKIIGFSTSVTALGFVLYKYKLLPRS", "assay": "HPLC-MS of metabolites", "format": "biochemical", "details": "oxidised to the aldehyde"}, "[2]": {"target": "T2, TbALDH3 (Trypanosoma brucei, UniProt Q583M9)", "T2 construct": "gene Tb06.5F5.780; A6-K490 seen in crystal", "T2 sequence (Q583M9 1-543)": "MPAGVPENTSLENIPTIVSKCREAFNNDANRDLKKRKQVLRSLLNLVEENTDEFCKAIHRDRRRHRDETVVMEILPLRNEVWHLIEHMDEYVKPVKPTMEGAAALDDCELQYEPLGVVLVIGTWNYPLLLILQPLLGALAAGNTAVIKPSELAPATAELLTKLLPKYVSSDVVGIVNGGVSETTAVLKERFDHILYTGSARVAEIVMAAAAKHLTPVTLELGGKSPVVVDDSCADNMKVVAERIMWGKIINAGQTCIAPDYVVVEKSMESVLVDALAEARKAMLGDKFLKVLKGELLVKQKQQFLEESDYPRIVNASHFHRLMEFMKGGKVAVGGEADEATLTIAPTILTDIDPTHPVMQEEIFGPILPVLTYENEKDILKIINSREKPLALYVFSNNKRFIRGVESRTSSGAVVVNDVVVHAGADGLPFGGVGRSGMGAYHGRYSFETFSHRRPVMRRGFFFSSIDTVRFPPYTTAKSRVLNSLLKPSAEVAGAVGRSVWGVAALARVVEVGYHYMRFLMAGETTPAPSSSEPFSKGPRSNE", "assay": "HPLC-MS of metabolites, coupled with MAOa or FBS", "format": "biochemical", "details": "aldehyde made in situ from AN3057; oxidised to the carboxylate (AN2861)"}},
  "data": [
    {"smiles": "NCc1ccc(Oc2ccc3c(c2)COB3O)cc1", "note": "[AN3057, (4-(1-hydroxy-1,3-dihydrobenzo[c][1,2]oxaborol-5-yloxy)phenyl)methanaminium chloride]", "values": [
      {"measurement": "HPLC-MS of metabolites", "setting": "[1]", "result": "the methylamine group in the structure is first converted by MAOa into an aldehyde"}
    ]},
    {"smiles": "O=Cc1ccc(Oc2ccc3c(c2)COB3O)cc1", "note": "[AN3057-aldehyde]", "values": [
      {"measurement": "HPLC-MS of metabolites, coupled with MAOa or FBS", "setting": "[2]", "result": "converted by MAOa into an aldehyde, and then is further metabolized into a carboxylic acid"}
    ]}
  ]
}
